# Source: PMC9412555, “Benzothiazole Derivatives Endowed with Antiproliferative Activity in Paraganglioma and Pancreatic Cancer Cells: Structure–Activity Relationship Studies and Target Prediction Analysis” (Pharmaceuticals, 2022)
# Where two headings read alike, the source gives them in different places.
# Assays:
# AsPC-1 = assay: MTT cell viability assay, AsPC-1; assay type: cell-based; details: for IC50: Homo sapiens, ASPC1, AsPC-1 pancreatic cancer, MTT, 72 h; for Selectivity Index (SI): IC50 in normal (HFF-1) fibroblast cells/IC50 in AsPC-1
# Method: (§1) Compounds 4a–p were submitted to a preliminary MTT assay at a one-point screening concentration of 75 μM for 72 h, including 2b as a reference compound (Figure 3). […] The presence of the electron-donating methoxy group decreased the activity of 2b, in both the para and meta positions. […] Specifically, these compounds, namely 4d, 4e, 4f, 4h, 4i, 4j, 4k, 4l, and 4m, were tested at concentrations of 3, 6, 12 and 24 µM for 72 h. In addition, the nine compounds, together with 2b, were tested against human fibroblasts HFF-1, in order to evaluate their selectivity against tumor cells, as compared to normal cells. Effects on cancer or normal cell viability were extrapolated from concentration–response curves and are expressed as IC50 values in Table 2.
# (§2) Pancreatic cancer (AsPC-1, BxPC-3, and Capan-2), paraganglioma (PTJ86i and PTJ64i) and normal fibroblast (HFF-1) cell lines were cultured as previously described. All compounds were dissolved in DMSO (stock solutions) and then diluted in culture media to the final working concentrations. In this way, the solutions were completely clear and devoid of any undissolved material by microscopic inspection. […] The effects of compounds 4a-p and 2b on cancer cell viability were tested by an MTT assay (Sigma-Aldrich, St. Louis, MO, USA), as described by Florio et al.. In the initial screening all compounds were tested at a one-point screening concentration of 75 μM for 72 h (five replica wells per each condition). […] For combined treatments, the experimental design was made according to the Chou–Talalay method for drug combination studies, as previously described.
# (§3) IC50 values were extrapolated from concentration–response curves and calculated using the CompuSyn software. […] Based on this analysis, a CI < 1 indicates synergism, a CI = 1 indicates additive effects and a CI > 1 indicates antagonism. SI values were calculated as previously described. Comparisons of mean values were performed using an unpaired Student’s t-test. For multiple comparisons, a one-way ANOVA followed by Dunnett’s test were employed. A p-value < 0.05 was estimated as statistically significant.
# BxPC-3 = assay: MTT cell viability assay, BxPC-3; assay type: cell-based; details: for IC50: Homo sapiens, BxPC-3 pancreatic cancer, MTT, 72 h; for Selectivity Index (SI): IC50 in normal (HFF-1) fibroblast cells/IC50 in BxPC-3
# Method: as §1, §2, §3
# Capan-2 = assay: MTT cell viability assay, Capan-2; assay type: cell-based; details: for IC50: Homo sapiens, Capan-2 pancreatic cancer, MTT, 72 h; for Selectivity Index (SI): IC50 in normal (HFF-1) fibroblast cells/IC50 in Capan-2
# Method: as §1, §2, §3
# PTJ64i [1] = assay: MTT cell viability assay, PTJ64i; assay type: cell-based; details: for Selectivity Index (SI): IC50 in normal (HFF-1) fibroblast cells/IC50 in PTJ64i; for IC50: PTJ64i paraganglioma, MTT, 72 h
# Method: as §1, §2, §3
# PTJ86i [2] = assay: MTT cell viability assay, PTJ86i; assay type: cell-based; details: for Selectivity Index (SI): IC50 in normal (HFF-1) fibroblast cells/IC50 in PTJ86i; for IC50: PTJ86i paraganglioma, MTT, 72 h
# Method: as §1, §2, §3
# HFF-1 = assay: MTT cell viability assay, normal fibroblasts HFF-1; assay type: cell-based, human; details: Homo sapiens; HFF-1 normal cells, MTT, 72 h
# Method: All compounds were dissolved in DMSO (stock solutions) and then diluted in culture media to the final working concentrations. […] The effects of compounds 4a-p and 2b on cancer cell viability were tested by an MTT assay (Sigma-Aldrich, St. Louis, MO, USA), as described by Florio et al. [17]. In the initial screening all compounds were tested at a one-point screening concentration of 75 μM for 72 h (five replica wells per each condition).
# IC50 values were extrapolated from concentration–response curves and calculated using the CompuSyn software [45]. […] SI values were calculated as previously described [46]. Comparisons of mean values were performed using an unpaired Student’s t-test. For multiple comparisons, a one-way ANOVA followed by Dunnett’s test were employed. A p-value < 0.05 was estimated as statistically significant.
# PTJ64i [3] = test system: PTJ64i; design: method as in PMID 28594934; details: PTJ64i paraganglioma, previously published; cited from earlier work
# PTJ86i [4] = test system: PTJ86i; design: method as in PMID 28594934; details: PTJ86i paraganglioma, previously published; cited from earlier work
# [5] = test system: pancreatic (AsPC-1, BxPC-3, and Capan-2) and paraganglioma (PTJ64i and PTJ86i) cancer cell lines; assay: One-point MTT screening at 75 µM in cancer cell lines; assay type: cell-based; details: one-point screening concentration of 75 μM for 72 h, five cancer cell lines
# Method: as §1, §2
# Figure 3 Screening of the effects of novel derivatives (4a–p) on the viability of pancreatic (AsPC-1, BxPC-3, and Capan-2) and paraganglioma (PTJ64i and PTJ86i) cancer cell lines. The lead compound 2b was included as a reference and the histograms show the relative decrease of cancer cell viability observed after treatments, as compared to 2b. Cell viability was assessed by an MTT assay using compounds at 75 µM for 72 h. Data shown are the means ± SD of duplicate experiments with quintuplicate determinations and are calculated as ratios relative to the reference compound 2b (dashed line).
IC50 (AsPC-1),IC50 (BxPC-3),melting point,SMILES,Selectivity Index (SI) (AsPC-1),Selectivity Index (SI) (BxPC-3),IC50 (Capan-2),Selectivity Index (SI) (Capan-2),Selectivity Index (SI) (PTJ64i [1]),Selectivity Index (SI) (PTJ86i [2]),IC50 (HFF-1),IC50 (PTJ64i [3]),IC50 (PTJ86i [4]),IC50 (PTJ64i [1]),IC50 (PTJ86i [2]),"effect on cancer cell viability, potency compared with 2b [5]"
12.4 µM,15 µM,–,"O=C(Nc1ccccc1)C(Sc1nc2cc(Cl)ccc2s1)c1ccccc1 (stereo not shown) [2b, reference compound]",1.72,1.43,19.7 µM,1.09,2.52,1.28,21.4 µM,8.49 µM,16.7 µM,–,–,–
14.8 µM,18.6 µM,151 to 153 °C,"O=C(Nc1cccc(F)c1)C(Sc1nc2cc(Cl)ccc2s1)c1ccccc1 (stereo not shown) [4i, 2-[(5-Chlorobenzo[d]thiazol-2-yl)thio]-N-(3-fluorophenyl)-2-phenylacetamide]",1.01,0.81,28.5 µM,0.53,1.74,1.28,15 µM,–,–,8.6 µM,11.7 µM,greater antiproliferative activity than 2b
10.1 µM,11.9 µM,193 to 195 °C,"O=C(Nc1cccc([N+](=O)[O-])c1)C(Sc1nc2cc(Cl)ccc2s1)c1ccccc1 (stereo not shown) [4k, 2-[(5-Chlorobenzo[d]thiazol-2-yl)thio]-N-(3-nitrophenyl)-2-phenylacetamide]",2.31,1.96,16.9 µM,1.38,3.12,1.73,23.3 µM,–,–,7.47 µM,13.5 µM,greater antiproliferative activity than 2b
